The record followed here is ChEMBL document CHEMBL5634101, “Discovery of NLRP3 inhibitors using machine learning: Identification of a hit compound to treat NLRP3 activation-driven diseases” (Eur J Med Chem, 2023).

A short description of data set [1]: Stability in human liver microsomes assessed as intrinsic clearance at 1.5 uM measured upto 45 mins in presence of NADPH by LC-MS/MS analysis. Particulars: read-out: CLH. It counts as ADME, Microsome.
Data set [2] can be described thus: Stability in human liver microsomes assessed as half-life at 1.5 uM measured upto 45 mins in presence of NADPH by LC-MS/MS analysis. Format: ADME, Microsome.
In data set [3] the target is NACHT, LRR and PYD domains-containing protein 3 (Homo sapiens, UniProt Q96P20). Put plainly: Inhibition of NLRP3 inflammasome activation in PMA-differentiated human THP-1 cells assessed as reduction in IL-1beta secretion pre-stimulated with PMA for 24 hrs followed by compound addition and measured after 30 mins by ELISA. Format: cell-based. A general note: ELISA stands for enzyme-linked immunosorbent assay.
NACHT, LRR and PYD domains-containing protein 3, sequence (Q96P20 whole entry, the tested form may be a part): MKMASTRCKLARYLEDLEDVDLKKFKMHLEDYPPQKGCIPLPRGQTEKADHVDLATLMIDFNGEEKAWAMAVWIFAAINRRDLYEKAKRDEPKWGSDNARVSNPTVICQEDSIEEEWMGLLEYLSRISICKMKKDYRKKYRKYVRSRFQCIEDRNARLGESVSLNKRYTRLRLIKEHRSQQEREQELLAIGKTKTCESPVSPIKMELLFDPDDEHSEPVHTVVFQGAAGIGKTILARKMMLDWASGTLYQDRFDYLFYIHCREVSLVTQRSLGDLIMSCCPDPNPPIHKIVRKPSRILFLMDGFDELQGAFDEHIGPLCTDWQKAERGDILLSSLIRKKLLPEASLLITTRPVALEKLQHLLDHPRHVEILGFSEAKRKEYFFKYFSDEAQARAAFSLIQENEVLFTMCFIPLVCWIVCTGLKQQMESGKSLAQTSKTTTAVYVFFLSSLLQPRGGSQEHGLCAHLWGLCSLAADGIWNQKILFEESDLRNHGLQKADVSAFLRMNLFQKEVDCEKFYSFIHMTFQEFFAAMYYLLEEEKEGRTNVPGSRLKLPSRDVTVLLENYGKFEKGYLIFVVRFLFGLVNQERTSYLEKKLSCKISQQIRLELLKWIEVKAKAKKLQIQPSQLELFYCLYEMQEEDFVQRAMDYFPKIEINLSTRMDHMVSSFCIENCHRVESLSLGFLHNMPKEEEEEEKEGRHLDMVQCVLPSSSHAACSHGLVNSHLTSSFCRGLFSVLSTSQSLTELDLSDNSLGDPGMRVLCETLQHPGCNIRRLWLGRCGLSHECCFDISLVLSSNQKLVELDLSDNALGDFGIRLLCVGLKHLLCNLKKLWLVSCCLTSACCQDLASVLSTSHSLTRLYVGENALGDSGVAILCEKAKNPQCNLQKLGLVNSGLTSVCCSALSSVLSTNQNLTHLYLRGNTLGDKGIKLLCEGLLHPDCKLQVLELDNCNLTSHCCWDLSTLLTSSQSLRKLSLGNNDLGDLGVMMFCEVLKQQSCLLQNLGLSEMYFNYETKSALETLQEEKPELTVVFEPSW

What is called half-life is the time in which the quantity being followed falls by half. Regarding `O=C(c1ccc(F)cc1)C1CCN(CCn2c(=O)[nH]c3ccccc3c2=O)CC1` [KETANSERIN], the CLint scaled at 1.5 µM in data set [1] came out at 17.3 mL/min/kg. In addition, the half-life at 1.5 µM in data set [2] turned out to be 1.68 h.

One may read the IC50 as the concentration at which inhibition is half-maximal. For the compound `O=C(O)CCCCCN1C(=O)/C(=C/c2c[nH]c3ccccc23)SC1=S`, the half-maximal inhibitory concentration (IC50) in data set [3] was determined as 13.9 µM.
